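Step 1: Grow cells in 96-well plates. Step 2: Expose to compound for 48 hours at 5 concentrations. Step 3: Interpolate endpoints linearly; if unreached, use highest concentration. The concentration for 50% growth inhibition is given as GI50. TGI: concentration producing complete growth inhibition.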
Columns and labels:
Assay in all cases: NCI-60 cell line screen, 48 h
[1] = system: 786-0 renal
[2] = system: A498 renal
[3] = system: A549 NSCLC
[4] = system: ACHN renal
[5] = system: BT-549 breast
[6] = system: CAKI-1 renal
[7] = system: CCRF-CEM leukemia
[8] = system: COLO 205 colon
[9] = system: DU-145 prostate
[10] = system: EKVX NSCLC
[11] = system: HCC-2998 colon
[12] = system: HCT-116 colon
[13] = system: HCT-15 colon
[14] = system: HOP-62 NSCLC
[15] = system: HOP-92 NSCLC
[16] = system: HS 578T breast
[17] = system: HT29 colon
[18] = system: IGROV1 ovarian
[19] = system: K-562 leukemia
[20] = system: KM12 colon
[21] = system: LOX IMVI melanoma
[22] = system: M14 melanoma
[23] = system: MALME-3M melanoma
[24] = system: MCF7 breast
[25] = system: MDA-MB-231 breast
[26] = system: MDA-MB-435
[27] = system: MOLT-4 leukemia
[28] = system: NCI-H226 lung
[29] = system: NCI-H23 lung
[30] = system: NCI-H460 lung
[31] = system: NCI-H522 lung
[32] = system: NCI/ADR-RES ovarian
[33] = system: OVCAR-3 ovarian
[34] = system: OVCAR-4 ovarian
[35] = system: OVCAR-5 ovarian
[36] = system: OVCAR-8 ovarian
[37] = system: PC-3 prostate
[38] = system: RPMI-8226 leukemia
[39] = system: RXF 393 renal
[40] = system: SF-268 CNS
[41] = system: SF-295 CNS
[42] = system: SF-539 CNS
[43] = system: SK-MEL-2 melanoma
[44] = system: SK-MEL-28 melanoma
[45] = system: SK-MEL-5 melanoma
[46] = system: SK-OV-3 ovarian
[47] = system: SN12C renal
[48] = system: SNB-19 CNS
[49] = system: SNB-75 CNS
[50] = system: SR leukemia
[51] = system: SW-620 colon
[52] = system: T-47D breast
[53] = system: TK-10 renal
[54] = system: U251 CNS
[55] = system: UACC-257 melanoma
[56] = system: UACC-62 melanoma
[57] = system: UO-31 renal

## CC(C)C(=O)c1c(C(F)(F)F)n([O-])c2ccccc2[n+]1=O
[1]
  GI50: 1.65 µM
  TGI: 3.73 µM
[2]
  GI50: 7.34 µM
  TGI: 16.2 µM
[3]
  GI50: 2.46 µM
  TGI: 6.79 µM
[4]
  GI50: 2.3 µM
[5]
  GI50: 1.06 µM
  TGI: 3.08 µM
[6]
  GI50: 0.689 µM
  TGI: 2.1 µM
[7]
  GI50: 1.57 µM
  TGI: 9.83 µM
[8]
  GI50: 1.31 µM
  TGI: 2.97 µM
[9]
  GI50: 1.12 µM
  TGI: 2.54 µM
[10]
  GI50: 0.876 µM
  TGI: 2.57 µM
[11]
  GI50: 1.74 µM
  TGI: 4.04 µM
[12]
  GI50: 1.25 µM
  TGI: 3.99 µM
[13]
  GI50: 2.31 µM
  TGI: > 27.1 µM
[14]
  GI50: 1.78 µM
  TGI: 3.49 µM
[15]
  GI50: 0.466 µM
  TGI: 1.62 µM
[16]
  GI50: 5.4 µM
  TGI: 18.1 µM
[17]
  GI50: 9.43 µM
  TGI: > 36.4 µM
[18]
  GI50: 1.11 µM
[19]
  GI50: 0.508 µM
  TGI: > 27.1 µM
[20]
  GI50: 0.563 µM
  TGI: 1.65 µM
[21]
  GI50: 1.85 µM
[22]
  GI50: 1.74 µM
  TGI: 3.76 µM
[23]
  GI50: 0.654 µM
  TGI: 2.03 µM
[24]
  GI50: 0.731 µM
  TGI: 6.06 µM
[25]
  GI50: 1.58 µM
  TGI: 3.58 µM
[26]
  GI50: 1.07 µM
  TGI: 3.45 µM
[27]
  GI50: 1.27 µM
  TGI: 9.65 µM
[28]
  GI50: 1.86 µM
  TGI: 5.27 µM
[29]
  GI50: 1.67 µM
  TGI: 3.41 µM
[30]
  GI50: 1.72 µM
  TGI: 5.56 µM
[31]
  GI50: 1.76 µM
  TGI: 15.1 µM
[32]
  GI50: 1.74 µM
  TGI: 5.46 µM
[33]
  GI50: 0.493 µM
  TGI: 1.24 µM
[34]
  GI50: 4.47 µM
  TGI: 18.8 µM
[35]
  GI50: 2.7 µM
  TGI: 6.25 µM
[36]
  GI50: 2.14 µM
  TGI: > 20.5 µM
[37]
  GI50: 0.688 µM
  TGI: 3.03 µM
[38]
  GI50: 0.178 µM
  TGI: 1.31 µM
[39]
  GI50: 2.35 µM
  TGI: 13 µM
[40]
  GI50: 1.03 µM
  TGI: 4.66 µM
[41]
  GI50: 0.553 µM
  TGI: 2 µM
[42]
  GI50: 1.81 µM
  TGI: 5.17 µM
[43]
  GI50: 2.01 µM
  TGI: 5.58 µM
[44]
  GI50: 9.06 µM
  TGI: 25.1 µM
[45]
  GI50: 1.63 µM
  TGI: 3.03 µM
[46]
  GI50: 2.66 µM
  TGI: > 100 µM
[47]
  GI50: 1.77 µM
  TGI: 3.97 µM
[48]
  GI50: 3.51 µM
  TGI: 25.8 µM
[49]
  GI50: 15.2 µM
  TGI: > 42.7 µM
[50]
  GI50: < 0.0197 µM
[51]
  GI50: 4.34 µM
  TGI: 17.5 µM
[52]
  GI50: 0.827 µM
  TGI: 3.49 µM
[53]
  GI50: 0.59 µM
  TGI: 2.07 µM
[54]
  GI50: 2.84 µM
  TGI: > 33.2 µM
[55]
  GI50: 2.74 µM
  TGI: 7.8 µM
[56]
  GI50: 1.59 µM
  TGI: 3.44 µM
[57]
  GI50: 1.18 µM
  TGI: 3.11 µM

Source: PubChem BioAssay (NCI)
